Values quoted from earlier work as cited in US20110003837A1, “MODIFIED RELEASE FORMULATIONS OF HMG COA REDUCTASE INHIBITORS” (LUPIN LIMITED, priority 2008, published 2011).
Where two headings read alike, the source gives them in different places.

Columns and labels:
[1] = U.S. Pharmacopeia (2002)
[2] = 40 mg daily, clinical trials
[3] = target: T1, HMG-CoA reductase (Homo sapiens, UniProt P04035)
T1 sequence (P04035 1-888): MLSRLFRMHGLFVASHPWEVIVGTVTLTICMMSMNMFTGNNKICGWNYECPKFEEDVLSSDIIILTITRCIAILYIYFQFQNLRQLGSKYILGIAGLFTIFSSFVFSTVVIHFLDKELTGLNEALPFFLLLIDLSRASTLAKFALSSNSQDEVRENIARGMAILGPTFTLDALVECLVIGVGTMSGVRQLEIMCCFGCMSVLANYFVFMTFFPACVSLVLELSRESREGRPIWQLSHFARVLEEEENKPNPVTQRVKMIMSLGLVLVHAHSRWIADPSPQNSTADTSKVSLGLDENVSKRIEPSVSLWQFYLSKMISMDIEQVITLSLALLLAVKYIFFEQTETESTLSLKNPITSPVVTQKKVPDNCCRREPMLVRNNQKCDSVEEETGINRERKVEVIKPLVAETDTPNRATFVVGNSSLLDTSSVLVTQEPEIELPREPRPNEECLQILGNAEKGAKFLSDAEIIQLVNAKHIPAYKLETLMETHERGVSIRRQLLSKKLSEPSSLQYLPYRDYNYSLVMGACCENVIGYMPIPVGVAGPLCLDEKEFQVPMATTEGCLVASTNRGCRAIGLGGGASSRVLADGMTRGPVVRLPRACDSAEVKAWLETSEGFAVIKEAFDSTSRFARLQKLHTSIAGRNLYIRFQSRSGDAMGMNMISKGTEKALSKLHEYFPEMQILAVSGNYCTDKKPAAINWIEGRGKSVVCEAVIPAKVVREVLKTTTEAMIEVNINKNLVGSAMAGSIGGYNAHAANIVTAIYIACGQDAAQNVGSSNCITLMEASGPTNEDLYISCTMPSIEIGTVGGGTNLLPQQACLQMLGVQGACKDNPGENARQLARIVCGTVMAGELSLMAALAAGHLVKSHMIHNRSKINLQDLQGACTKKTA

[4] = in vivo
[5] = in words

## CC(C)c1nc(N(C)S(C)(=O)=O)nc(-c2ccc(F)cc2)c1/C=C/[C@@H](O)C[C@@H](O)CC(=O)O (single isomer, unassigned) [rosuvastatin]
[1]
  Solubility class: sparingly soluble
[2]
  LDL-C reduction: up to 63%
[3]
  Share of the inhibitory activity of rosuvastatin due to the parent compound: 90%
[4]
  Absorbed dose extracted by the liver: up to 90%
  Clearance through biliary excretion: 90%
  Elimination half-life (t½): 20 h
  Excreted in the urine: 10%
[5]
  Stability in acidic environments like that found in the stomach: stable in acidic environments
40 mg
  Patients with drug levels greater than 50 ng/ml: 2%
80 mg
  Patients with drug levels greater than 50 ng/ml: 33%
plasma
  Plasma level at which muscle and or renal toxicity developed: more than 50 ng/ml
